Reference: patent publication US20210403498A1, “PHYTOCHEMICAL-FRUCTOOLIGOSACCHARIDE CONJUGATE, METHOD FOR PRODUCING SAME, AND USE THEREOF” (EVERGREEN BIO CO., LTD., priority 2018, published 2021)
In brackets after ≈: the same amount, converted by molar mass. Read-outs that look alike come from different tables or passages of the source.

What was measured:
[1] = tested on: CCD 18Co (Normal Human colon fibroblast primary cell line); experiment: CCK-8 cell proliferation, normal colon cells; type: cell-based; details: 72 hr
Experimental: (§1) Specifically, the cell lines cultured in each well of a 96-well plate were dispensed at a density of 18,000 cells per well and cultured overnight, and then the cells were treated with drugs dissolved in various concentrations in the culture medium, and were incubated for 72 hr under a temperature of 37° C. and 5% CO2 condition in a humidified incubator. After completion of the culture, the medium was removed and replaced with 100 μl of PBS, and […] Cell Counting Kit-8 (CCK-8; Dojindo, Japan) solution was added thereto, and the cells were incubated for 3 hr for reaction. Thereafter, the degree of color development of the reaction solution was measured based on absorbance at 450 nm, and the number of cell proliferation was calculated according to the instructions of the producing company.
(§2) HT-29 cells were cultured in McCoy's 5A medium, LoVo cells were cultured in Ham's F-12K (Kaigh's) medium, CCD 18Co cells were cultured in DMEM. Before use, 10% Fetal bovine serum and 100 U/ml penicillin, streptomycin were added to all media.

[2] = tested on: HT-29 (Colorectal adenocarcinoma); experiment: CCK-8 cell proliferation, colorectal cancer cells; type: cell-based, human; details: for IC50: HT-29, 72 hr, CCK-8; for SI (Selectivity Index): IC50 for Normal cell (CCD 18Co)/IC50 for HT-29
Experimental: as §1, §2

[3] = tested on: Lovo (Colorectal adenocarcinoma capable of metastasis); experiment: CCK-8 cell proliferation, metastasis colorectal cancer cells; type: cell-based, human; details: for IC50: Lovo, 72 hr, CCK-8; for SI (Selectivity Index): IC50 for Normal cell (CCD 18Co)/IC50 for Lovo
Experimental: as §1, §2

[4] = In vivo pharmacokinetics in rats (FA in plasma, LC MS/MS); details: male, Sprague Dawley; rat plasma, single oral dose 100 mg/kg FA
Experimental: In order to evaluate the in vivo pharmacokinetics of FA-FOS II, the release profile of ferulic acid (FA) released from FA-FOS II in the colon of rats was investigated. Specifically, male Sprague Dawley rats weighing 180 to 250 g were randomly assigned to three groups as follows.
(ii) Ferulic acid (FA) administered group: a drug is prepared by dissolving ferulic acid (FA) in water and is administered orally thereto at a predetermined dose
(iii) FA-FOS II administered group: a drug is prepared by dissolving FA-FOS II in water and is administered orally thereto at a predetermined dose
Ferulic acid (FA) was orally administered to the rats at a dose of 100 mg/kg body weight, based on the amount of ferulic acid (FA), in the state dissolved in sterile water. Further, FA-FOS II was orally administered thereto at a dose of 3.89 g/kg body weight (equivalent to 100 mg/kg body weight in terms of the amount of ferulic acid) based on the amount of FA-FOS II, in the state dissolved in sterile water. After single dose administration via oral intake, rat blood was continuously sampled over 0, 0.5, 1, 3, 6, 8, 12, 24 hr. The sampled samples were subjected to LC MS/MS analysis in a multiple reaction monitoring (MRM) manner of a molecular weight 193.0/133.9 Da (intact mass/fragment mass of FA) to quantify the FA released from plasma.

Row | SMILES | IC50 ([1]; Homo sapiens, read-out: IC50) [µg/mL] | IC50 ([2]; Homo sapiens, read-out: IC50) [µg/mL] | SI (Selectivity Index) [2] | IC50 ([3]; Homo sapiens, read-out: IC50) [µg/mL] | SI (Selectivity Index) [3] | Tmax [4] [min] | half-life [4] [min] | IC50 [1] [µg/mL] | IC50 [2] [µg/mL] | IC50 [3] [µg/mL]
1 | O=c1[nH]cc(F)c(=O)[nH]1 [5-Fluorouracil, 5-fluorouracil] | 0.014 (≈ 0.108 µM) | 0.008 (≈ 0.0615 µM) | (SI: 1.685) | 0.074 (≈ 0.569 µM) | (SI: 0.186) |  |  |  |  | 
2 | COc1cc(/C=C/C(=O)O)ccc1O [FA, ferulic acid] | 0.583 (≈ 3 µM) | 0.2 (≈ 1.03 µM) | (SI: >2.918) | 0.244 (≈ 1.26 µM) | (SI: >2.389) | ~5 | ~30 |  |  | 
3 | O=C1[O][Pt]2([NH][C@@H]3CCCC[C@H]3[NH]2)[O]C1=O [Oxaliplatin, oxaliplatin] |  |  | (SI: 6.631) |  | (SI: 1.473) |  |  | 0.100 | 0.015 | 0.068
